Among the test systems are Citrobacter freundii E8; Proteus vulgaris W091; Serratia marcescens US20; Shigella sonnei MB11967; Bacillus subtilis A; Streptococcus faecalia I; Escherichia coli ESS.
What all share (assay): MIC in broth
Format in all cases: cell-based

Assay [1] deals with Enterobacter cloacae N1 [T753].
Assay [2] concerns Escherichia coli 0111 [E8].
For assay [3], the system named is Escherichia coli JT39 [E96].
Assay [4] deals with Klebsiella aerogenes A [T767].
For assay [5], the system named is Proteus mirabilis 977 [13].
The next assay has as its system Proteus rettgeri WM16. The settings on record: Providencia rettgeri.
Assay [6] relates to Pseudomonas aeruginosa A [11].
The test system of assay [7] is Salmonella typhimurium CT10. The following applies: Salmonella enterica.
Assay [8] relates to Staphylococcus aureus Oxford.
For assay [9], the system named is Staphylococcus aureus Russell [MB9].
Assay [10] concerns Staphylococcus aureus 1517.
The test system of assay [11] is Streptococcus pyogenes CN10.
The subject of a further assay is Proteus morganii 1580. The following applies: Morganella morganii.
The test system of assay [12] is Streptococcus pneumoniae CN33.

Values after ≈ are worked out from the molar mass of the structure shown.

Three compounds from patent EP0059554A2, “Beta-lactam antibiotics, a process for their preparation and their use in pharmaceutical compositions” (BEECHAM GROUP PLC, priority 1981, dated 1982) can be followed below.

The term MIC denotes the smallest concentration in the dilution series that meets the test's criterion for growth inhibition. Low readings indicate greater potency, high ones weaker potency.

In the case of `CC(=O)N/C=C/SC1=C(C(=O)O)N2C(=O)[C@H]([C@@H](C)n3cc(C(=O)OCCN)nn3)[C@H]2C1` [Example 7, (5R,6S)-3-[(E)-2-acetamidoethenylthio]-6-[(R)-1-(4-(2-aminoethyloxycarbonyl)triazol-1-yl]ethyl]-7-oxo-1-azabicyclo[3.2.0.]hept-2-ene-2-carboxylic acid], the MIC was 0.8 µg/mL (≈ 1.78 µM) with Citrobacter freundii E8; 1.6 µg/mL (≈ 3.55 µM) in [1]; 1.6 µg/mL (≈ 3.55 µM) in [2]; 0.8 µg/mL (≈ 1.78 µM) in assay [3]; 3.1 µg/mL (≈ 6.88 µM) in assay [4]; 25 µg/mL (≈ 55.5 µM) in assay [5]. Also, the MIC is 6.2 µg/mL (≈ 13.8 µM) against Proteus rettgeri WM16; 25 µg/mL (≈ 55.5 µM) against Proteus vulgaris W091; 100 µg/mL (≈ 222 µM) in [6]; 1.6 µg/mL (≈ 3.55 µM) in [7]; 3.1 µg/mL (≈ 6.88 µM) in the assay with Serratia marcescens US20; 1.6 µg/mL (≈ 3.55 µM) in the assay with Shigella sonnei MB11967. For the same compound, the MIC in the assay with Bacillus subtilis A amounted to 0.8 µg/mL (≈ 1.78 µM); in assay [8], 0.4 µg/mL (≈ 0.888 µM); in assay [9], 0.4 µg/mL (≈ 0.888 µM); in [10], 12.5 µg/mL (≈ 27.7 µM); against Streptococcus faecalia I it was 50 µg/mL (≈ 111 µM); in assay [11], 0.4 µg/mL (≈ 0.888 µM).

As to `CC(=O)NCCSC1=C(C(=O)O)N2C(=O)[C@H]([C@@H](C)n3cc(C(=O)O)nn3)[C@H]2C1` [Example 4, Disodium (SR,6S) - 3 - (2 - acetamidoethylthio) - 6 - [(R) - 1 - (4 - carboxytriazol - 1 - yl)ethyl] - 7 - oxo - 1 - azabicyclo [3.2.0.]hept - 2 - ene - 2 - carboxylate.], the MIC with Citrobacter freundii E8 was determined as 1.6 µg/mL; in assay [1] it was 3.1 µg/mL; in assay [3], 3.1 µg/mL; with Escherichia coli ESS it was 1.6 µg/mL; in assay [4], 3.1 µg/mL; in [5] it was 12.5 µg/mL. The minimum inhibitory concentration (MIC) was determined as 25 µg/mL in the assay with Proteus morganii 1580; 6.2 µg/mL against Proteus rettgeri WM16; 6.2 µg/mL against Proteus vulgaris W091; 100 µg/mL in assay [6]; 6.2 µg/mL in assay [7]; 6.2 µg/mL against Serratia marcescens US20. Moreover, the MIC in the assay on Shigella sonnei MB11967 is 12.5 µg/mL; against Bacillus subtilis A, 3.1 µg/mL; in assay [8], 6.2 µg/mL; in assay [9] it was 6.2 µg/mL; in assay [10] it was greater than 100 µg/mL; in the assay on Streptococcus faecalia I it was 100 µg/mL. The MIC in assay [12] and in assay [11] was 1.6 µg/mL throughout.

Take `CC(=O)N/C=C/SC1=C(C(=O)O)N2C(=O)[C@H]([C@@H](C)n3cc(C(=O)O)nn3)[C@H]2C1` [Example 6, Disodium (5R,6S)-3-[(E)-2-acetamidoethenylthio]-6-[(R)-1-(4-carboxytriazol-1-yl)ethyl]-7-oxo-1-azabicyclo [3.2.0.] hept-2-ene-2-carboxylate]: the MIC in the assay with Citrobacter freundii E8 came to 25 µg/mL; in [1], 25 µg/mL; in assay [2] it was 12.5 µg/mL; in [3], 3.1 µg/mL; in the assay on Escherichia coli ESS it was 1.6 µg/mL; in assay [4], 1.6 µg/mL. Also, the MIC in [5] came to 12.5 µg/mL; in the assay with Proteus morganii 1580 it was 12.5 µg/mL; with Proteus rettgeri WM16 it was 3.1 µg/mL; with Proteus vulgaris W091, 12.5 µg/mL; in [6], 50 µg/mL; in assay [7], 1.6 µg/mL. Moreover, the MIC was found to be 6.2 µg/mL in the assay with Serratia marcescens US20; 3.1 µg/mL in the assay on Shigella sonnei MB11967; 6.2 µg/mL in the assay with Bacillus subtilis A; 6.2 µg/mL in assay [8]; 6.2 µg/mL in [9]; 25 µg/mL in assay [10]. The compound further had an MIC in the assay with Streptococcus faecalia I of 100 µg/mL.
